In patent publication US8377874 one finds ring closure, yield of all isomers data, which are given here for four compounds.

SMILES strings stand for the structures. Like-named read-outs stand apart in the source and are kept apart here.

The conditions of the series: rcm bond, Zhan catalyst 1B.

`CCOC(=O)[C@@]12C[C@H]1/C=C\CCCCC[C@H](NC(=O)OC(C)(C)C)C(=O)N1C[C@H](Oc3nccc4cc(OC)c(Br)cc34)C[C@H]1C(=O)N2` returned a ring closure, yield of all isomers (from C=CCCCCC[C@H](NC(=O)OC(C)(C)C)C(=O)N1C[C@H](Oc2nccc3cc(OC)c(Br)cc23)C[C@H]1C(=O)N[C@]1(C(=O)OCC)C[C@H]1C=C, DCM, 10.15 mM, 40.0 °C, 2.0 h) of 70.1%. Regarding `COc1cc2nc(-c3ccccc3)cc3c2cc1C=CCCCOC(=O)N[C@H]1CCCCCC=C[C@@H]2C[C@@]2(C(=O)NS(=O)(=O)C2CC2)NC(=O)[C@@H]2C[C@H](CN2C1=O)O3`, where the note is “from C=CCCCCC[C@H](NC(=O)OCCCC=C)C(=O)N1C[C@H](Oc2cc(-c3ccccc3)nc3cc(OC)c(C=C)cc23)C[C@H]1C(=O)N[C@]1(C(=O)NS(=O)(=O)C2CC2)C[C@H]1C=C, 1,2-dichloroethane, 4.73 mM, 90.0 °C, 3.0 h”, the ring closure, yield of all isomers came out at 6.1%. Consider `CCOC(=O)[C@@]12C[C@H]1/C=C\CCCCC[C@@H]1NC(=O)OCC(C)(C)CC=Cc3cc4c(nccc4cc3OC)O[C@@H]3C[C@@H](C(=O)N2)N(C3)C1=O`, for which the ring closure, yield of all isomers (from C=CCC(C)(C)COC(=O)N[C@H]1CCCCC/C=C\[C@@H]2C[C@@]2(C(=O)OCC)NC(=O)[C@@H]2C[C@@H](Oc3nccc4cc(OC)c(C=C)cc34)CN2C1=O, DCM, 10.2 mM, 40.0 °C, 5.0 h) was 80.8%. With `CCOC(=O)[C@@]12C[C@H]1C=CCCCCC[C@@H]1NC(=O)OCC(C)(C)CC=Cc3cc4c(cc(-c5ccccc5)nc4cc3OC)O[C@@H]3C[C@@H](C(=O)N2)N(C3)C1=O`, under “from C=CCCCCC[C@H](NC(=O)OCC(C)(C)CC=C)C(=O)N1C[C@H](Oc2cc(-c3ccccc3)nc3cc(OC)c(C=C)cc23)C[C@H]1C(=O)N[C@]1(C(=O)OCC)C[C@H]1C=C, DCM, 5.0 mM, 40.0 °C, 7.0 h”, the ring closure, yield of all isomers stood at 49%.
